The values that follow come from patent US12252488B2 (Nimbus Saturn, Inc., priority 2021, dated 2025).

The IC50 is the concentration needed to halve the response being measured.

Structures are written as SMILES.

T1 sequence (Q92918 whole entry): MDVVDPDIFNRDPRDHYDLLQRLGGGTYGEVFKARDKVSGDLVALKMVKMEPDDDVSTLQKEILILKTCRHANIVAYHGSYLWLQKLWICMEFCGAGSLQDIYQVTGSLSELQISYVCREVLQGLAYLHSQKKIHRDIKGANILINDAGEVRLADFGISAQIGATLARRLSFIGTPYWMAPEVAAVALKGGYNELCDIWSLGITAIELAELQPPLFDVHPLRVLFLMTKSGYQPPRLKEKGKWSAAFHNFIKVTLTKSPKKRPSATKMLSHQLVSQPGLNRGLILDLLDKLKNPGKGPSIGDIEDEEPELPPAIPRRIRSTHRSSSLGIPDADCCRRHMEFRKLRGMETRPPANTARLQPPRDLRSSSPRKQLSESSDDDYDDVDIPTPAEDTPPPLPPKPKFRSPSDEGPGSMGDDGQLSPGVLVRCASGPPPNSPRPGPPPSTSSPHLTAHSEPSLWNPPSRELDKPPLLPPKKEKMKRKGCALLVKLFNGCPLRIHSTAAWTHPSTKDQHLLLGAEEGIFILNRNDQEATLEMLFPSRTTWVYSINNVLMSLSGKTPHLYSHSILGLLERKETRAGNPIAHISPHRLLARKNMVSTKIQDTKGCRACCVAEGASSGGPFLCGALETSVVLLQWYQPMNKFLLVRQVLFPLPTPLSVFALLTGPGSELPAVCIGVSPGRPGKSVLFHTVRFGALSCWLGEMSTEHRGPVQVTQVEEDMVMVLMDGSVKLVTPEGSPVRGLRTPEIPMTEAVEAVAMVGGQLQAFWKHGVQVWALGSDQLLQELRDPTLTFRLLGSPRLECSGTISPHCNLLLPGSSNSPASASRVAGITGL

This assay addresses T1, HPK1 (Homo sapiens, UniProt Q92918).
T1 construct: purchased Invitrogen
As to the kind of experiment: HPK1 biochemical enzyme assay (microfluidic mobility shift assay). The following applies: 1000 uM (1 mM) ATP; Caliper mobility shift; 1.5 nM HPK1; 30 min preincubation; read-out: HPK1 1000UMATP caliper IC50. How it is done:
Example 33. HPK1 Biochemical Enzyme Assay
HPK1 biochemical enzyme assay: HPK1 enzyme inhibition was measured using a microfluidic mobility shift assay. Reactions were performed in a 384-well plate, containing 1.5 nM HPK1 (Invitrogen), in assay buffer (Carna Biosciences; pH 7.4). Test compounds were titrated in ten point curves (top final assay concentration 3 μM), and preincubated with enzyme/substrate mix for 30 min prior to initiation of the reaction by addition of ATP (1 mM final concentration) and substrate (1 μM final concentration; Carna Biosciences) diluted in assay buffer supplemented by MgCl2 (final assay concentration of 5 mM). Following 60 min incubation at RT, the reaction was terminated by addition of 60 μl/well termination buffer (Carna Biosciences) and signal determination using a Caliper EZ Reader (Perkin Elmer, UK).
The compound numbers correspond to the compound numbers in Table 1. Compounds having an activity designated as “A” provided an IC50≤100 nM; compounds having an activity designated as “B” provided an IC50>100 nM and ≤1,000 nM; compounds having an activity designated as “C” provided an IC50>1,000 nM.
`CCCc1cc(Nc2ccc(N3CCC(O)CC3)cn2)c2c(=O)[nH]cnc2n1` [I-60, 5-[[5-(4-hydroxy-1-piperidyl)-2-pyridyl]amino]-7-propyl-3H-pyrido[2,3-d]pyrimidin-4-one]: the IC50 lay within 100 to 1000 nM. Regarding `O=C(c1ccc(-c2cc(Nc3ccc(N4CCC(O)CC4)cn3)c3c(=O)[nH]ccc3n2)c(F)c1)N1CCOCC1` [I-120], the IC50 is 100 to 1000 nM.

In the case of `O=c1[nH]ccc2nc(N3CCC[C@@H](O)C3)cc(Nc3ccc(N4CCC(O)CC4)cn3)c12` [I-82, 2-[(3R)-3-hydroxy-1-piperidyl]-4-[[5-(4-hydroxy-1-piperidyl)-2-pyridyl]amino]-6H-1,6-naphthyridin-5-one], the 50% inhibitory concentration (IC50) was in the range of 100 to 1000 nM. With `O=c1[nH]ccc2nc(-c3ccnc4[nH]ccc34)cc(Nc3ccc(N4CCC(O)CC4)cn3)c12` [I-282, 4-[[5-(4-hydroxy-1-piperidyl)-2-pyridyl]amino]-2-(1H-pyrrolo [2,3-b]pyridin-4-yl)-6H-1,6-naphthyridin-5-one], the IC50 was above 1000 nM.

On to `COc1cc(-c2cc(Nc3ccc(N4[C@H](C)COC[C@H]4C)cn3)c3c(=O)[nH]ccc3n2)c(F)cc1C(=O)N1CCCCC1` [I-190, 4-[[5-[(3R, 5R)-3,5-dimethyl-morpholin-4-yl]-2-pyridyl]amino]-2-[2-fluoro-5-methoxy-4-(piperidine-1-carbonyl)phenyl]-6H-1,6-naphthyridin-5-one], for which the IC50 was in the range of 100 to 1000 nM. In the case of `O=c1[nH]ccc2nc(C3CCCC3)cc(Nc3ccc(N4CCC(O)CC4)cn3)c12` [I-20, 2-cyclopentyl-4-[[5-(4-hydroxy-1-piperidyl)-2-pyridyl]amino]-6H-1,6-naphthyridin-5-one] it was 100 to 1000 nM; in that of `O=C(c1ccc(-c2cc(Nc3ccc(N4CCC(O)CC4)cn3)c3c(=O)[nH]ccc3n2)c(F)c1)N1CC2CCC1CC2` [I-124, 2-[4-(3-azabicyclo [2.2.2]octane-3-carbonyl)-2-fluoro-phenyl]-4-[[5-(4-hydroxy-1-piperidyl)-2-pyridyl]amino]-6H-1,6-naphthyridin-5-one], 100 to 1000 nM. Regarding `COc1cc(-c2cc(Nc3ccc(N4CCNCC4)cn3)c3c(=O)[nH]ccc3n2)ccc1C(=O)N1CCCCC1` [I-187, 2-[3-methoxy-4-(piperidine-1-carbonyl)phenyl]-4-[(5-piperazin-1-yl-2-pyridyl)amino]-6H-1,6-naphthyridin-5-one], the IC50 lay in the range of 100 to 1000 nM. Consider `CNC(=O)c1ccc(F)c(-c2cc(Nc3ccc(N4CCC(O)CC4)cn3)c3c(=O)[nH]ccc3n2)c1` [I-85, 4-fluoro-3-[4-[[5-(4-hydroxy-1-piperidyl)-2-pyridyl]amino]-5-oxo-6H-1,6-naphthyridin-2-yl]-N-methyl-benzamide], for which the IC50 was 100 to 1000 nM. In the case of `N#CC1(c2ccc(F)c(-c3cc(Nc4ccc(N5CCC(O)CC5)cn4)c4c(=O)[nH]ccc4n3)c2)CC1` [I-105, 1-[4-fluoro-3-[4-[[5-(4-hydroxy-1-piperidyl)-2-pyridyl]amino]-5-oxo-6H-1,6-naphthyridin-2-yl]phenyl] cyclo-propane-carbonitrile] it was above 1000 nM; in that of `O=C1Cc2cc(-c3cc(Nc4ccc(N5CCC(O)CC5)cn4)c4c(=O)[nH]ccc4n3)cnc2N1` [I-226, 4-[[5-(4-hydroxy-1-piperidyl)-2-pyridyl]amino]-2-(2-oxo-1,3-dihydro-pyrrolo[2,3-b]pyridin-5-yl)-6H-1,6-naphthyridin-5-one], at most 100 nM; in that of `CC(=O)NC1CCCN(c2cc(Nc3ccc(N4CCC(O)CC4)cn3)c3c(=O)[nH]ccc3n2)C1` (stereo not drawn) [I-78, N-[1-[4-[[5-(4-hydroxy-1-piperidyl)-2-pyridyl]amino]-5-oxo-6H-1,6-naphthyridin-2-yl]-3-piperidyl] acetamide], above 1000 nM. In the case of `O=c1[nH]ccc2nc(N3CCCC3)cc(Nc3ccc(N4CCC(O)CC4)cn3)c12` [I-84, 4-[[5-(4-hydroxy-1-piperidyl)-2-pyridyl]amino]-2-pyrrolidin-yl-6H-1,6-naphthyridin-5-one] it was 100 to 1000 nM; in that of `O=C(Nc1ccc(-c2cc(Nc3ccc(N4CCC(O)CC4)cn3)c3c(=O)[nH]ccc3n2)c(F)c1)C1(C(F)F)CC1` [I-222], at most 100 nM. In the case of `O=C(Nc1ccc(-c2cc(Nc3ccc(C(=O)N4CCCC4)cc3)c3c(=O)[nH]ccc3n2)c(F)c1)C1CCCCC1` [I-160, N-[3-fluoro-4-[5-oxo-4-[4-(pyrrolidine-1-carbonyl)anilino]-6H-1,6-naphthyridin-2-yl]phenyl] cyclohexane carboxamide] it was at most 100 nM; in that of `Cc1cc(F)c(-c2cc(Nc3ccc(N4CCC(O)CC4)cn3)c3c(=O)[nH]ccc3n2)cc1C` [I-86, 2-(2-fluoro-4,5-dimethyl-phenyl)-4-[[5-(4-hydroxy-1-piperidyl)-2-pyridyl]amino]-6H-1,6-naphthyridin-5-one], 100 to 1000 nM. In the case of `O=c1[nH]ccc2nc(-c3ccc(OCc4ccncc4)cc3F)cc(Nc3cc(C4CCOC4)n[nH]3)c12` (stereo not drawn) [I-257, 2-[2-fluoro-4-(4-pyridyl-methoxy)phenyl]-4-[(3-THF-3-yl-1H-pyrazol-5-yl)amino]-6H-1,6-naphthyridin-5-one], the concentration for half-maximal inhibition (IC50) was above 1000 nM.

As to `COc1cc(-c2cc(Nc3ccc(N4CCC(O)CC4)cn3)c3c(=O)[nH]ccc3n2)c(F)c(F)c1C(=O)N1CCCCC1` [I-241, 2-[2,3-difluoro-5-methoxy-4-(piperidine-1-carbonyl)phenyl]-4-[[5-(4-hydroxy-1-piperidyl)-2-pyridyl]amino]-6H-1,6-naphthyridin-5-one], the IC50 fell in the range of 100 to 1000 nM. In the case of `O=c1[nH]ccc2nc(-c3cc4c(cc3F)CCC4N3CC4(CCC4)C3)cc(Nc3ccc(N4CCC(O)CC4)cn3)c12` (stereo not drawn) [I-258, 2-[3-(2-azaspiro [3.3]heptan-2-yl)-6-fluoro-indan-5-yl]-4-[[5-(4-hydroxy-1-piperidyl)-2-pyridyl]amino]-6H-1,6-naphthyridin-5-one] it was 100 to 1000 nM; in that of `O=C(NC1CCCCC1)c1ccc(-c2cc(Nc3ccc(N4CCC(O)CC4)cn3)c3c(=O)[nH]ccc3n2)c(F)c1` [I-139, N-cyclohexyl-3-fluoro-4-[4-[[5-(4-hydroxy-1-piperidyl)-2-pyridyl]amino]-5-oxo-6H-1,6-naphthyridin-2-yl] benzamide], at most 100 nM; in that of `O=c1[nH]ccc2nc(-c3cc4c(cc3F)CCC4O)cc(Nc3ccc(N4CCC(O)CC4)cn3)c12` (stereo not drawn) [I-192, 2-(6-fluoro-3-hydroxy-indan-5-yl)-4-[[5-(4-hydroxy-1-piperidyl)-2-pyridyl]amino]-6H-1,6-naphthyridin-5-one], 100 to 1000 nM. As to `COc1cccc(-c2cc(Nc3ccc(N4CCC(O)CC4)cn3)c3c(=O)[nH]ccc3n2)c1F` [I-65, 2-(2-fluoro-3-methoxy-phenyl)-4-[[5-(4-hydroxy-1-piperidyl)-2-pyridyl]amino]-6H-1,6-naphthyridin-5-one], the half-inhibitory concentration (IC50) lay within 100 to 1000 nM.

For the compound `CNC1(c2ccc(F)c(-c3cc(Nc4ccc(N5CCC(O)CC5)cn4)c4c(=O)[nH]ccc4n3)c2)CC1` [I-221, 2-[2-fluoro-5-[1-(methyl-amino)cyclopropyl]phenyl]-4-[[5-(4-hydroxy-1-piperidyl)-2-pyridyl]amino]-6H-1,6-naphthyridin-5-one], the 50% inhibitory concentration (IC50) lay within 100 to 1000 nM.

As to `O=C(O)c1ccc(-c2cc(Nc3ccc(N4CCC(O)CC4)cn3)c3c(=O)[nH]ccc3n2)c(F)c1` [I-134, 3-Fluoro-4-[4-[[5-(4-hydroxy-1-piperidyl)-2-pyridyl]amino]-5-oxo-6H-1,6-naphthyridin-2-yl]benzoic Acid], the 50% inhibitory concentration (IC50) is at most 100 nM. In the case of `N#Cc1ccc(F)c(-c2cc(Nc3ccc(N4CCC(O)CC4)cn3)c3c(=O)[nH]ccc3n2)c1` [I-45, 4-fluoro-3-[4-[[5-(4-hydroxy-1-piperidyl)-2-pyridyl]amino]-5-oxo-6H-1,6-naphthyridin-2-yl] benzonitrile] it was at most 100 nM; in that of `O=c1[nH]ccc2nc(N3CC[C@H](O)C3)cc(Nc3ccc(N4CCC(O)CC4)cn3)c12` [I-88, 4-[[5-(4-hydroxy-1-piperidyl)-2-pyridyl]amino]-2-[(3S)-3-hydroxy-pyrrolidin-1-yl]-6H-1,6-naphthyridin-5-one], at most 100 nM; in that of `O=C(c1ccc(-c2cc(Nc3ccc(N4CCC(O)CC4)cn3)c3c(=O)[nH]ccc3n2)c(F)c1)N1CCCC1` [I-115, 2-[2-fluoro-4-(pyrrolidine-1-carbonyl)phenyl]-4-[[5-(4-hydroxy-1-piperidyl)-2-pyridyl]amino]-6H-1,6-naphthyridin-5-one], at most 100 nM. In the case of `CN1CCN(c2ccc(Nc3cc(-c4cnc5c(c4)CC(=O)N5)nc4cc[nH]c(=O)c34)nc2)CC1` [I-227, 4-[[5-(4-methyl-piperazin-1-yl)-2-pyridyl]amino]-2-(2-oxo-1,3-dihydro-pyrrolo[2,3-b]pyridin-5-yl)-6H-1,6-naphthyridin-5-one] it was at most 100 nM. In the case of `CCOc1cc(-c2cc(Nc3ccc(N4CCC(O)CC4)cn3)c3c(=O)[nH]ccc3n2)c(F)cc1C(=O)N1CCCCC1` [I-196, 2-[5-ethoxy-2-fluoro-4-(piperidine-1-carbonyl)phenyl]-4-[[5-(4-hydroxy-1-piperidyl)-2-pyridyl]amino]-6H-1,6-naphthyridin-5-one] it was 100 to 1000 nM. `N#CCc1ccc(F)c(-c2cc(Nc3ccc(N4CCC(O)CC4)cn3)c3c(=O)[nH]ccc3n2)c1` [I-98, 2-[4-fluoro-3-[4-[[5-(4-hydroxy-1-piperidyl)-2-pyridyl]amino]-5-oxo-6H-1,6-naphthyridin-2-yl]phenyl] acetonitrile]: the IC50 was at most 100 nM.
